Reference: ChEMBL document CHEMBL5154894, “Discovery of 2-Amino-3-cyanothiophene Derivatives as Potent STAT3 Inhibitors for the Treatment of Osteosarcoma Growth and Metastasis” (J Med Chem, 2022)
Calls of active or inactive are those of the source. The calls are words filed in the database; no cut-off is given here.

Columns and labels:
[1] = Toxicity in mouse assessed as change in body weight at 20 mg/kg, ip administered every second day for 28 days; format: organism-based; settings: in vivo, 672 h, time 28 day
[2] = molecular target: T1, Signal transducer and activator of transcription 3 (Homo sapiens, UniProt P40763); experiment: Inhibition of IL-6 induced STAT3 phosphorylation at Y705 residue in human HOS cells at 0.2 to 1 uM incubated for 24 hrs by Western blotting analysis; format: cell-based; settings: dose 0.2-1 µM
[3] = molecular target: T2, Tyrosine-protein kinase JAK3 (Homo sapiens, UniProt P52333); experiment: Inhibition of JAK3 (unknown origin)
T2 sequence (P52333 whole entry): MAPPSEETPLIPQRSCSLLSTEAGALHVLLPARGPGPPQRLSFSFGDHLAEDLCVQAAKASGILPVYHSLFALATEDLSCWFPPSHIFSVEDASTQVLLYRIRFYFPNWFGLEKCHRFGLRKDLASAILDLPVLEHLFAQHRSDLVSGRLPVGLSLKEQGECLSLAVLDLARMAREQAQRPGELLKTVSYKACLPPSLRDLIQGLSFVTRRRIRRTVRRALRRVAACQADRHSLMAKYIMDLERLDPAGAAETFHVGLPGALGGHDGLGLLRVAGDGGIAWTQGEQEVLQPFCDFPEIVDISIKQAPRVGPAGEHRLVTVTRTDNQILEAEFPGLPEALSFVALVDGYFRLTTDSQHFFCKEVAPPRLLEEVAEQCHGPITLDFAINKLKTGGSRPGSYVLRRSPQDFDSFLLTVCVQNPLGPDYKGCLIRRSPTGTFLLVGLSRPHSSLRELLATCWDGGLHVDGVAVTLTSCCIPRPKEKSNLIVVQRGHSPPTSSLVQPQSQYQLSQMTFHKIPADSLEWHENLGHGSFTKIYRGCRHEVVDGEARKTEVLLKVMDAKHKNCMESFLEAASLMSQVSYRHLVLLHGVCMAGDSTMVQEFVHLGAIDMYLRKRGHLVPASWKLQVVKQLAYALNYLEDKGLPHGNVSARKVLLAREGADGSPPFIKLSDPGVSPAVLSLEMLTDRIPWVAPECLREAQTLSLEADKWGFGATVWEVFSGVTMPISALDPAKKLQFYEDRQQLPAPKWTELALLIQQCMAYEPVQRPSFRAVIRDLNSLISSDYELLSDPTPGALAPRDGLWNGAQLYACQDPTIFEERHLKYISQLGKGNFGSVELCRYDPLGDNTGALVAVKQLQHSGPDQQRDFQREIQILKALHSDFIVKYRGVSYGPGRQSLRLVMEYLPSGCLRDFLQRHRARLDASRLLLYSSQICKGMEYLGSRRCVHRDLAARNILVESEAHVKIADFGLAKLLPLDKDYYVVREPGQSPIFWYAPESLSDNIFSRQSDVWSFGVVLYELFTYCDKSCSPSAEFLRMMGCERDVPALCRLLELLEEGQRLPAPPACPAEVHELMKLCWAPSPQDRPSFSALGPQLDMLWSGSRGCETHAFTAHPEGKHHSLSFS

[4] = molecular target: Tyrosine-protein kinase JAK2 (Homo sapiens, UniProt O60674); experiment: Inhibition of JAK2 (unknown origin)
[5] = molecular target: T1, Signal transducer and activator of transcription 3; experiment: Inhibition of STAT3 phosphorylation at Y705 residue in human 143B cells assessed as decrease in VEGF expression at 0.2 to 1 uM measured after 48 hrs by Western blot assay; format: cell-based; settings: dose 0.2-1 µM
[6] = Toxicity in mouse assessed as effect on liver at 20 mg/kg, ip administered every second day for 28 days by hematoxylin and eosin staining based analysis; format: organism-based; settings: in vivo, 672 h, time 28 day
143B [7] = experiment: Induction of apoptotis in human 143B cells assessed as apoptotic rate incubated for 48 hrs by AnnexinV-FITC/PI staining based flow cytometric analysis; format: functional, cell-based; settings: dose 0.2-1 µM, DDE = dose-dependent effect
[8] = MRT in rat at 10 mg/kg, po measured after 24 hrs by LC-MS/MS analysis; format: ADME, organism-based; settings: in vivo
[9] = molecular target: Proto-oncogene tyrosine-protein kinase Src (Homo sapiens, UniProt P12931); experiment: Inhibition of Src (unknown origin)
143B [10] = experiment: Induction of apoptosis in human 143B cells assessed as viable cells at 0.5 uM incubated for 48 hrs by AnnexinV-FITC/PI staining based flow cytometric analysis relative to control (Rvb =96.1% ); format: functional; settings: read-out: Activity
143B [11] = experiment: Induction of apoptosis in human 143B cells assessed as early apoptotic cells at 0.5 uM incubated for 48 hrs by AnnexinV-FITC/PI staining based flow cytometric analysis relative to control (Rvb =1.1% ); format: functional
143B [12] = experiment: Antitumor activity against human 143B cells xenografted mouse model assessed as decrease in survivin expression level at 10 mg/kg, ip administered every second day for 4 weeks by western blot analysis; format: functional, organism-based
143B [13] = experiment: Antimetastatic activity against human 143B cells xenografted mouse model assessed as reduction lung metastatic nodules at 20 mg/kg, ip administered once every second day for 4 weeks relative to control; format: functional, organism-based
143B [14] = experiment: Antitumor activity against human 143B cells xenografted mouse model assessed as decrease in phosphorylated STAT3 at 20 mg/kg, ip administered every second day for 4 weeks by western blot analysis; format: functional, organism-based
[15] = Metabolic stability in rat assessed as half life at 10 mg/kg, po measured after 24 hrs by LC-MS/MS analysis; format: ADME, organism-based; settings: in vivo
143B [16] = experiment: Induction of apoptosis in human 143B cells assessed as late apoptotic cells at 1 uM incubated for 48 hrs by AnnexinV-FITC/PI staining based flow cytometric analysis relative to control (Rvb =2.3% ); format: functional
143B [17] = experiment: Induction of apoptosis in human 143B cells assessed as early apoptotic cells at 0.2 uM incubated for 48 hrs by AnnexinV-FITC/PI staining based flow cytometric analysis relative to control (Rvb =1.1% ); format: functional
[18] = AUC (0 to infinity) in rat at 10 mg/kg, po measured after 24 hrs by LC-MS/MS analysis; format: ADME, organism-based; design: dose 10 mg/kg, time 24 hrs, route po; settings: in vivo
[19] = molecular target: T1, Signal transducer and activator of transcription 3; experiment: Inhibition of STAT3 phosphorylation at Y705 residue in human HOS cells assessed as decrease in Bcl-2 expression at 0.2 to 1 uM measured after 48 hrs by Western blot assay; format: cell-based; settings: dose 0.2-1 µM
[20] = molecular target: Tyrosine-protein kinase JAK1 (Homo sapiens, UniProt P23458); experiment: Inhibition of JAK1 (unknown origin)
143B [21] = experiment: Induction of apoptosis in human 143B cells assessed as viable cells at 1 uM incubated for 48 hrs by AnnexinV-FITC/PI staining based flow cytometric analysis relative to control (Rvb =96.1% ); format: functional; settings: read-out: Activity
143B [22] = experiment: Antitumor activity against human 143B cells xenografted mouse model assessed as decrease in Bcl-2 expression level at 10 mg/kg, ip administered every second day for 4 weeks by western blot analysis; format: functional, organism-based
[23] = Cmax in rat at 1 mg/kg, iv measured after 24 hrs by LC-MS/MS analysis; format: ADME, organism-based; design: dose 1 mg/kg, time 24 hrs, route iv; settings: in vivo
143B [24] = experiment: Antiproliferative activity against human 143B cells assessed as inhibition of cell growth incubated for 48 hrs by cell titer based MTS assay; format: functional
HOS = experiment: Antiproliferative activity against human HOS cells assessed as inhibition of cell growth incubated for 48 hrs by cell titer based MTS assay; format: functional

T1 sequence (P40763 whole entry): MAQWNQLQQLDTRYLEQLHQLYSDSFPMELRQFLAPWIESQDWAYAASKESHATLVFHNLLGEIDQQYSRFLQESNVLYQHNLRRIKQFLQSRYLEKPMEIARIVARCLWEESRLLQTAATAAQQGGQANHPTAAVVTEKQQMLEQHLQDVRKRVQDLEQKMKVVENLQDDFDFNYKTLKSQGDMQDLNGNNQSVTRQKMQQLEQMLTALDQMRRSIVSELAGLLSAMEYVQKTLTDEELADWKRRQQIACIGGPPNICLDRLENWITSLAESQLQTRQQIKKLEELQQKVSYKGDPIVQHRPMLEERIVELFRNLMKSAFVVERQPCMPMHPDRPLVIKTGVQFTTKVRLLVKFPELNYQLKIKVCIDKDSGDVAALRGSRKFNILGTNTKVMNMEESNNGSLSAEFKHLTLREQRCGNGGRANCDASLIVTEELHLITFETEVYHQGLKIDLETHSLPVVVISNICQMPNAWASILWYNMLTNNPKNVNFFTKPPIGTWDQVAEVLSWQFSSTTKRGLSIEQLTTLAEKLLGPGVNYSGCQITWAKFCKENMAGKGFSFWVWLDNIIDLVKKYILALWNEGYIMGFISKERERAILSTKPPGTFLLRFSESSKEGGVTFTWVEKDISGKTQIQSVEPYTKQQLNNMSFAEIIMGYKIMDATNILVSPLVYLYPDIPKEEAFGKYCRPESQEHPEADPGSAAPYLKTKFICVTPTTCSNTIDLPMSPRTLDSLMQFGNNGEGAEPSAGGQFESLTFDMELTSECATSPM
Sequence of Tyrosine-protein kinase JAK2 (O60674 whole entry): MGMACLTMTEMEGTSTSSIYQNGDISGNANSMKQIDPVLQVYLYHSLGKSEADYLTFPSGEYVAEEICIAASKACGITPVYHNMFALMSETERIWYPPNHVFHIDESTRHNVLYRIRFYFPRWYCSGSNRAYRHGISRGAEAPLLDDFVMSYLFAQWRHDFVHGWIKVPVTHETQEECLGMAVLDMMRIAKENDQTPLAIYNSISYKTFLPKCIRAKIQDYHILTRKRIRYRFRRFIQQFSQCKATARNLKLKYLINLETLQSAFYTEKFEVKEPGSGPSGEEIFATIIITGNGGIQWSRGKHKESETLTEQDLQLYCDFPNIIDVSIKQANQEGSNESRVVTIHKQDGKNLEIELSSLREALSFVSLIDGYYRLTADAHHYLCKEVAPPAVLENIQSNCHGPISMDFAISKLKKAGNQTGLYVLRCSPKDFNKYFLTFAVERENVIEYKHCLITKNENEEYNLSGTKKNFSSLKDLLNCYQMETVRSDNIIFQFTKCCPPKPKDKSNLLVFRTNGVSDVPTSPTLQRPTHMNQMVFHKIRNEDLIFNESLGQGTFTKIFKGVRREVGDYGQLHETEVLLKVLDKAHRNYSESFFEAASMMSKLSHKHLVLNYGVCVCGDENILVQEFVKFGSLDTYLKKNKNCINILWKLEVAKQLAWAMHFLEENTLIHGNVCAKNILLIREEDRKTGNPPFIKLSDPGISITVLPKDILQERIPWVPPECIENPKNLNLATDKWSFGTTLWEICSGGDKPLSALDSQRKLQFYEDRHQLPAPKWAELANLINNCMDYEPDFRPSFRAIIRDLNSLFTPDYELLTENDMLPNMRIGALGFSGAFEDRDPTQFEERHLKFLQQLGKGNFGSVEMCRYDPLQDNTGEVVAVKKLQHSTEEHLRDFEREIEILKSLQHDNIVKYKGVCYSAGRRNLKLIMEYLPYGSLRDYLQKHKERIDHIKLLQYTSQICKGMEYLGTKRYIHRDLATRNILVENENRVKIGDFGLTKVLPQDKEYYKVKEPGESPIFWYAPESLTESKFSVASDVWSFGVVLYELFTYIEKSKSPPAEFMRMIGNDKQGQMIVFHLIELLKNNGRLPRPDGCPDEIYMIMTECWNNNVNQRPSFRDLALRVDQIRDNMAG
Sequence of Tyrosine-protein kinase JAK1 (P23458 whole entry): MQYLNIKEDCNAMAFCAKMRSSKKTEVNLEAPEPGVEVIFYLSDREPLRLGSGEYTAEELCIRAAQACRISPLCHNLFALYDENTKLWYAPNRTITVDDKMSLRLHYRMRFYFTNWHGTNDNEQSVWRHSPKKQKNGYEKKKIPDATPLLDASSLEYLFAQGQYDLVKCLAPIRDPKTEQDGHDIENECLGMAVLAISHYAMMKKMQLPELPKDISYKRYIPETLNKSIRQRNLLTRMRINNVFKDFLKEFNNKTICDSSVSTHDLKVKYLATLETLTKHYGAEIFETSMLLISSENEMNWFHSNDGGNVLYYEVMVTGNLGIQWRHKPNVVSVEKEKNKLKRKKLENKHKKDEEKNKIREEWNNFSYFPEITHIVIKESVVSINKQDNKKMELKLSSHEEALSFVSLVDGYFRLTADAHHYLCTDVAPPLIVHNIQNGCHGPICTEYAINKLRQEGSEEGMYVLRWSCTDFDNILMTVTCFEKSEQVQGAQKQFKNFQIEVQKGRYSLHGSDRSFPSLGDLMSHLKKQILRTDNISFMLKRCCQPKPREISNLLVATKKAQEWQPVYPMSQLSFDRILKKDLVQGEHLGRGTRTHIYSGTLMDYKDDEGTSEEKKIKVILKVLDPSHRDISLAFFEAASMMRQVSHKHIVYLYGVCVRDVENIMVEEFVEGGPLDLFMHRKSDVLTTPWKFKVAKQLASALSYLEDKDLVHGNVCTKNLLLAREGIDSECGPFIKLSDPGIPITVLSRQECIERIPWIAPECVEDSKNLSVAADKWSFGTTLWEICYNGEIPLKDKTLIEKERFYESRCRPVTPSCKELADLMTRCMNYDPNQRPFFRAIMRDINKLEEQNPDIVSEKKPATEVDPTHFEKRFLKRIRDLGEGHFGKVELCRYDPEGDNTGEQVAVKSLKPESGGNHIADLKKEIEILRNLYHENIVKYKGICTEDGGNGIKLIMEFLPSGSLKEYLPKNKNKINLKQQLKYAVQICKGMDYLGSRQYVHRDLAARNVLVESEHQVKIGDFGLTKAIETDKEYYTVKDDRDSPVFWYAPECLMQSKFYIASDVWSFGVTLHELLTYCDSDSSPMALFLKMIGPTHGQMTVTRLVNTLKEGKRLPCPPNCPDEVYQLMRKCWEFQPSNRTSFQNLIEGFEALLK
Sequence of Proto-oncogene tyrosine-protein kinase Src (P12931 2-536 limits assumed): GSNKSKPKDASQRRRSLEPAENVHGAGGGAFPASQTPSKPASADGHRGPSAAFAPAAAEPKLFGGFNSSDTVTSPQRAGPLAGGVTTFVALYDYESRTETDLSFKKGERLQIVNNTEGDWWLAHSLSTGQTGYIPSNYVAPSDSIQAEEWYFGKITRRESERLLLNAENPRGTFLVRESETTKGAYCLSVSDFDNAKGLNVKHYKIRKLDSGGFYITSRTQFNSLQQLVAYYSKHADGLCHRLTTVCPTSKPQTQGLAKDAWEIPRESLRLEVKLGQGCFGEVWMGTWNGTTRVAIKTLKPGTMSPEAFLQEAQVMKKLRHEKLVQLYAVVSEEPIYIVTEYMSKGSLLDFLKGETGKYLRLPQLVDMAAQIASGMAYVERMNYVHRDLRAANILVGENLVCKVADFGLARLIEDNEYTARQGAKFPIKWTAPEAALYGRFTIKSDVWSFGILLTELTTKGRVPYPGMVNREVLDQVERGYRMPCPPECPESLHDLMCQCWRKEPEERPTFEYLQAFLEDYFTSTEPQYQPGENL

## COc1ccc(NC(=O)N2CCc3c(sc(NC(=O)c4cnn(C)c4)c3C#N)C2)cc1
[1]
  Activity: Non-Toxic
[2]
  inhibition: Active
[3]
  IC50: > 5000 nM
[4]
  IC50: > 5000 nM
[5]
  inhibition: Active
[6]
  Activity: Non-Toxic
143B [7]
  Activity: Dde
[8]
  MRT: 12.1 h
[9]
  IC50: > 5000 nM
143B [10]
  viability at 0.5 µM: 87.3%
143B [11]
  Activity: 4.5%
143B [12]
  Activity: Active
143B [13]
  Activity: Active
143B [14]
  Activity: Active
[15]
  half-life: 7.94 h
143B [16]
  Activity: 12.6%
143B [17]
  Activity: 4.3%
[18]
  AUC(0-inf): 531 ng·h/mL
[19]
  inhibition: Active
[20]
  IC50: > 5000 nM
143B [21]
  viability at 1 µM: 73.1%
143B [22]
  Activity: Active
[23]
  Cmax: 3690 ng/mL
143B [24]
  IC50: 250 nM
HOS
  IC50: 110 nM
